# According to US12319664B2, “Herbicidally active 3-phenylisoxazoline-5-carboxamides of cyclopentenylcarboxylic acid derivatives” (Bayer Aktiengesellschaft, priority 2018, dated 2025):
# What was measured:
# AVEFA = assay: Post-emergence herbicidal action against AVEFA; format: in vivo, Avena fatua; settings: application rate 80 g/ha, rated visually after about 3 weeks
# Method: (§1) [table] 2. Post-emergence herbicidal action against harmful plants and crop plant compatibility Seeds of monocotyledonous and dicotyledonous weeds and crop plants are placed in sandy loam in plastic or wood-fibre pots, covered with soil and cultivated in a greenhouse under controlled growth conditions. 2 to 3 weeks after sowing, the test plants are treated at the one-leaf stage. The compounds of the invention, formulated in the form of wettable powders (WP) or as emulsion concentrates (EC), are then sprayed onto the green parts of the plants as aqueous suspension or emulsion with addition of 0.5% additive at a water application rate of 600 l/ha (converted). After the test plants have been kept in the greenhouse under optimum growth conditions for about 3 weeks, the activity of the preparations is rated visually in comparison to untreated controls. For example, 100% activity=the plants have died, 0% activity=like control plants.
# ALOMY = assay: Post-emergence herbicidal action against ALOMY; format: in vivo, Alopecurus myosuroides; settings: application rate 80 g/ha, rated visually after about 3 weeks
# Method: as §1
# STEME = assay: Post-emergence herbicidal action against STEME; format: in vivo, Stellaria media; settings: application rate 80 g/ha, rated visually about 3 weeks after treatment
# Method: as §1
# POLCO = assay: Post-emergence herbicidal action against POLCO; format: in vivo, Polygonum convolvulus; settings: application rate 80 g/ha, rated visually about 3 weeks after treatment
# Method: as §1
# SETVI = assay: Post-emergence herbicidal action against SETVI; format: in vivo, Setaria viridis; settings: application rate 80 g/ha, rated visually after about 3 weeks
# Method: as §1
# LOLRI = assay: Post-emergence herbicidal action against LOLRI; format: in vivo, Lolium rigidum; settings: application rate 80 g/ha, rated visually after about 3 weeks
# Method: as §1
# ABUTH = assay: Post-emergence herbicidal action against ABUTH; format: in vivo, Abutilon theophrasti; settings: application rate 80 g/ha, rated visually about 3 weeks after treatment
# Method: as §1
# VERPE = assay: Post-emergence herbicidal action against VERPE; format: in vivo, Veronica persica; settings: application rate 80 g/ha
# Method: as §1
# ECHCG = assay: Post-emergence herbicidal action against ECHCG; format: in vivo, Echinochloa crus-galli; settings: application rate 80 g/ha, rated visually after about 3 weeks
# Method: as §1
# HORMU = assay: Post-emergence herbicidal action against HORMU; format: in vivo, Hordeum murinum; settings: application rate 80 g/ha
# Method: as §1
# AMARE = assay: Post-emergence herbicidal action against AMARE; format: in vivo, Amaranthus retroflexus; settings: application rate 80 g/ha, rated visually about 3 weeks after treatment
# Method: as §1
Compound,Herbicidal action against [%] AVEFA (AVEFA) [%],Herbicidal action against [%] ALOMY (ALOMY) [%],Herbicidal action against [%] STEME (STEME) [%],Herbicidal action against [%] POLCO (POLCO) [%],Herbicidal action against [%] SETVI (SETVI) [%],Herbicidal action against [%] LOLRI (LOLRI) [%],Herbicidal action against [%] ABUTH (ABUTH) [%],Herbicidal action against [%] VERPE (VERPE) [%],Herbicidal action against [%] ECHCG (ECHCG) [%],Herbicidal action against [%] HORMU (HORMU) [%],Herbicidal action against [%] AMARE (AMARE) [%]
C=CC1(C(=O)NC2C=CC(C(=O)OC(C)C)C2)CC(c2cc(F)cc(F)c2)=NO1 (mixture of isomers) [Example I-034],90,90,90,80,80,100,80,90,80,90,–
C=CC1(C(=O)NC2C=CC(C(=O)OC)C2)CC(c2cc(F)cc(F)c2)=NO1 (mixture of isomers) [Example I-035],90,90,90,80,80,90,80,80,90,90,80
CCOC(=O)C1C=CC(NC(=O)C2(C(F)(F)F)CC(c3cc(OC)cc(OC)c3)=NO2)C1 (mixture of isomers) [Example I-043],90,90,80,–,80,90,80,80,80,80,80
Cc1cc(C2=NOC(C(=O)NC3C=CC(C(=O)OCC(F)(F)F)C3)(C(F)(F)F)C2)cc(C(F)(F)F)c1 (mixture of isomers) [Example I-050],90,90,–,–,–,–,80,–,–,90,80
Cc1cc(C)cc(C2=NOC(C(=O)NC3C=CC(C(=O)OCCCl)C3)(C(F)(F)F)C2)c1 (mixture of isomers) [Example I-056],90,100,90,80,80,90,–,80,80,80,80
CC(C)(C)OC(=O)C1C=CC(NC(=O)C2(C(F)(F)F)CC(c3cc(F)cc(F)c3)=NO2)C1 (mixture of isomers) [Example I-066],90,90,–,80,90,90,–,80,80,90,90
CCOC(=O)C1C=CC(NC(=O)C2(C)CC(c3cccc(C#N)c3)=NO2)C1 (mixture of isomers) [Example I-069],90,90,80,80,80,90,80,80,90,90,80
CC1(C(=O)NC2C=CC(C(=O)OCCCl)C2)CC(c2cccc(C#N)c2)=NO1 (mixture of isomers) [Example I-079],90,90,80,90,90,–,80,90,80,100,90
COCCOC(=O)C1C=CC(NC(=O)C2(C)CC(c3cccc(C#N)c3)=NO2)C1 (mixture of isomers) [Example I-081],100,–,90,90,80,100,80,80,–,100,80
COC(=O)C(C)(C)NC(=O)C1C=CC(NC(=O)C2(C)CC(c3cc(F)cc(F)c3)=NO2)C1 (mixture of isomers) [II-09],90,–,–,90,–,80,–,–,–,–,–
C=CC1(C(=O)NC2C=CC(C(=O)NC(C#N)C(C)C)C2)CC(c2cc(F)cc(F)c2)=NO1 (mixture of isomers) [II-17],–,80,–,–,–,–,–,–,–,–,–
C=CC1(C(=O)NC2C=CC(C(=O)NC(C)(C)C#N)C2)CC(c2cc(F)cc(F)c2)=NO1 (mixture of isomers) [II-20],100,–,80,–,–,–,–,–,–,–,–
C=CC1(C(=O)NC2C=CC(C(=O)NC(C(=O)OC)C(C)C)C2)CC(c2cc(F)cc(F)c2)=NO1 (mixture of isomers) [II-25],90,80,–,80,–,90,–,–,80,100,80
C=CC1(C(=O)NC2C=CC(C(=O)N3CCCCO3)C2)CC(c2cc(F)cc(F)c2)=NO1 (mixture of isomers) [II-30],100,100,–,90,80,90,80,80,90,–,80
O=C(OCCCl)[C@@H]1C=C[C@H](NC(=O)C2(C(F)(F)F)CC(c3ccccc3)=NO2)C1 (stereo partly drawn) [Example I-025],90,90,80,100,90,90,–,–,80,80,90
C=CC1(C(=O)NC2C=CC(C(=O)NC(C)(C)C(=O)OC)C2)CC(c2cc(F)cc(F)c2)=NO1 (stereo not drawn) [II-21],–,–,–,80,–,–,–,–,–,–,–
C=CC1(C(=O)NC2C=CC(C(=O)NC(C)(C)C(=O)OC)C2)CC(c2cc(F)cc(F)c2)=NO1 (stereo not drawn) [II-22],90,80,80,–,–,90,–,80,–,90,–
C=CC1(C(=O)NC2C=CC(C(=O)N3CCCO3)C2)CC(c2cc(F)cc(F)c2)=NO1 (stereo not drawn) [II-27],90,90,90,90,80,90,–,90,90,80,80
C=CC1(C(=O)N[C@H]2C=C[C@H](C(=O)N3CCCCO3)C2)CC(c2cc(F)cc(F)c2)=NO1 (stereo partly drawn) [II-29],80,–,–,80,80,90,–,80,90,80,80
COC(=O)CS(=O)(=O)NC(=O)C1C=CC(NC(=O)C2(C(F)(F)F)CC(c3cc(F)cc(F)c3)=NO2)C1 (stereo not drawn) [II-39],90,80,–,–,–,80,–,80,–,80,80
